For orientation: melting point means the temperature, or range, at which the solid turns liquid. Consider `Cc1ncccc1COc1nc(Cl)cnc1NS(=O)(=O)c1cccc(Cl)c1Cl` [Example 92, 2,3-Dichloro-N-[5-chloro-3-(2-methyl-3-pyridinylmethoxy)-2-pyrazinyl]benzenesulphonamide], for which the melting point was 214 to 216 °C (dec.). As for `COc1nc(-c2ccc(F)cc2F)cnc1NS(=O)(=O)c1cccc(Cl)c1Cl` [Example 81, 2,3-Dichloro-N-[5-(2,4-difluorophenyl)-3-methoxy-2-pyrazinyl]benzenesulphonamide], the figure is 169 to 170 °C; as for `COc1ncc(Cl)nc1NS(=O)(=O)c1cccc(Cl)c1` [Example 39, 3-Chloro-N-(6-chloro-3-methoxy-2-pyrazinyl)benezenesulphonamide], 126 to 127 °C; as for `COc1nc(SCCO)cnc1NS(=O)(=O)c1cccc(Cl)c1Cl` [Example 177, 2,3-Dichloro-N-[5-(2-hydroxyethylsulphanyl)-3-methoxy-2-pyrazinyl]benzenesulphonamide], 180 to 181 °C.

For the compound `COc1nc(Cl)cnc1NS(=O)(=O)c1cccc(Cl)c1C` [Example 50, 3-Chloro-N-(5-chloro-3-methoxy-2-pyrazinyl)-2-methylbenzenesulphonamide], the melting point fell in the range of 150 to 152 °C. As for `O=S(=O)(Nc1nccnc1OCc1ccccn1)c1cccc(Cl)c1Cl` [Example 28, 2,3-Dichloro-N-[3-(2-pyridinylmethoxy)-2-pyrazinyl]benzenesulphonamide], the figure is 167 to 168 °C. As for `COc1nc(SCC#N)cnc1NS(=O)(=O)c1cccc(Cl)c1Cl` [Example 171, 2,3-Dichloro-N-[5-cyanomethylsulphanyl-3-methoxy-2-pyrazinyl]benzenesulphonamide], the figure is 158 to 159 °C. As for `CN(C)Cc1ccc(COc2ncc(Cl)nc2NS(=O)(=O)c2cccc(Cl)c2Cl)o1` [Example 180, 2,3-Dichloro-N-[6-chloro-3-(5-dimethylaminomethyl-2-furanylmethoxy)-2-pyrazinyl]benzenesulphonamide], the figure is 209 to 210 °C; as for `Nc1nc(COc2nc(Cl)cnc2NS(=O)(=O)c2cccc(Cl)c2Cl)co1` [Example 212, N-[3-[(2-amino-4-oxazolyl)methoxy]-5-chloro-2-pyrazinyl]-2,3-dichlorobenzenesulphonamide], 137 °C; as for `O=S(=O)(Nc1ncc(Cl)nc1OCc1cccc(CO)n1)c1cccc(Cl)c1Cl` [Example 143, 2,3-Dichloro-N-[5-chloro-3-{[6-(hydroxymethyl)-2-pyridinyl]methoxy}-2-pyrazinyl]benzenesulphonamide], 220 °C. In the case of `COc1nc(SCc2ccc(F)cc2)cnc1NS(=O)(=O)c1cccc(Cl)c1Cl` [Example 170, 2,3-Dichloro-N-[5-(4-fluorobenzylsulphanyl)-3-methoxy-2-pyrazinyl]benzenesulphonamide], the melting point fell in the range of 119 to 120 °C.

As for `COC(=O)c1cnc(NS(=O)(=O)c2cccc(Cl)c2Cl)c(OC)n1` [Example 113, 5-(2,3-Dichlorobenzenesuphonylamino)-6-methoxypyrazine-2-carboxylic acid, methyl ester], the melting point lay within 120 to 121 °C.

Turning to `O=S(=O)(Nc1ncc(Cl)nc1OCc1cncnc1)c1cccc(Cl)c1Cl` [Example 37, N-[5-Chloro-3-(5-pyrimidinylmethoxy)-2-pyrazinyl]-2,3-dichlorobenzenesulphonamide], the melting point was 205 to 206 °C.

`COc1nc(SCCN(C)C)cnc1NS(=O)(=O)c1cccc(Cl)c1Cl` [Example 205, 2,3-Dichloro-N-{5-[2-(dimethylamino)ethylsulphanyl]-3-methoxy-2-pyrazinyl]benzenesulphonamide] displayed a melting point of 117 to 118 °C. `COc1nc(OCc2cc(C)on2)cnc1NS(=O)(=O)c1cccc(Cl)c1Cl` [Example 174] came in with a melting point of 142 to 143 °C. As for `COc1nc(Cl)c(Cl)nc1NS(=O)(=O)c1ccc(Cl)cc1Cl` [Example 63, 2,4-Dichloro-N-(5,6-dichloro-3-methoxy-2-pyrazinyl)benzenesulphonamide], the figure is 171 to 172 °C.

The compound `O=S(=O)(Nc1ncc(Cl)nc1OCc1cccc(CNCCO)c1)c1cccc(Cl)c1Cl` [Example 108, 2,3-Dichloro-N-[5-chloro-3-{3-([2-hydroxyethylamino]methyl)phenylmethoxy}-2-pyrazinyl]benzenesulphonamide] showed a melting point of 196 to 198 °C. As for `COc1nc(C)cnc1NS(=O)(=O)c1ccc(Cl)cc1Cl` [Example 47, 2,4-Dichloro-N-(3-methoxy-5-methyl-2-pyrazinyl)benezenesulphonamide], the figure is 135 to 136 °C. For `COc1nccnc1NS(=O)(=O)c1cccc(F)c1Cl` [Example 131, 2-Chloro-3-fluoro-N-(3-methoxy-2-pyrazinyl)benzenesulphonamide] the value was 144 to 145 °C; for `Cc1cnc(NS(=O)(=O)c2cccc(Cl)c2Cl)c(OCc2ccc[n+]([O-])c2)n1` [Example 86], 223 to 228 °C; for `O=S(=O)(Nc1ncc(Br)nc1OCc1cccnn1)c1cccc(Cl)c1Cl` [Example 33], 115 to 120 °C. The compound `COc1ncc(Cl)nc1NS(=O)(=O)c1ccc(Cl)c(Cl)c1` [Example 42, N-(6-Chloro-3-methoxy-2-pyrazinyl)-3,4-dichlorobenezenesulphonamide] yielded a melting point of 176 to 177 °C.

Consider `C#CCOc1nccnc1NS(=O)(=O)c1cccc(Cl)c1Cl` [Example 189, 2,3-Dichloro-N-[3-(2-propynyloxy)-2-pyrazinyl)benzenesulphonamide], for which the melting point was in the range of 153 to 154 °C.

The compound `CN(C)Cc1ccc(COc2nc(Cl)cnc2NS(=O)(=O)c2cccc(Cl)c2Cl)o1` [Example 182, 2,3-Dichloro-N-[5-chloro-3-(5-dimethylaninomethyl-2-furanylmethoxy)-2-pyrazinyl]benzenesulphonamide] had a melting point of 209 to 210 °C. On to `COc1nc(SCCN)cnc1NS(=O)(=O)c1cccc(Cl)c1Cl` [Example 173, N-[5-(2-Aminoethylsulphanyl)-3-methoxy-2-pyrazinyl]-2,3-dichlorobenzenesulphonamide], for which the melting point was 189 to 190 °C.

As for `O=S(=O)(Nc1ncc(Cl)nc1OCc1ccncc1)c1cccc(Cl)c1Cl` [Example 87, 2,3-Dichloro-N-[5-chloro-3-(4-pyridinylmethoxy)-2-pyrazinyl]benzenesulphonamide], the melting point is 226 to 229 °C (dec.). As for `COc1cnc(NS(=O)(=O)c2cccc(Cl)c2Cl)c(OC)n1` [Example 56, 2,3-Dichloro-N-[3,5-dimethoxy-2-pyrazinyl]benzenesulphonamide], the figure is 138 to 139 °C; as for `CNc1nc(OC)c(NS(=O)(=O)c2cccc(Cl)c2Cl)nc1Cl` [Example 79, 2,3-Dichloro-N-(6-chloro-3-methoxy-5-methylamino-2-pyrazinyl)benzenesulphonamide], 185 to 186 °C; as for `COc1nc(SCC(N)=O)cnc1NS(=O)(=O)c1cccc(Cl)c1Cl` [Example 169, 2-[5-(2,3-Dichlorobenzenesulphonylamino)-6-methoxy-2-pyrazinylsulphanyl]acetamide], 163 to 164 °C. As for `COCc1nc(OC)c(NS(=O)(=O)c2cccc(Cl)c2Cl)nc1Cl` [Example 129, 2,3-Dichloro-N-[6-chloro-3-methoxy-5-(methoxymethyl)-2-pyrazinyl]benzenesulphonamide], the figure is 193 to 196 °C; as for `O=S(=O)(Nc1nccnc1OCc1cccnc1)c1cccc(Cl)c1Cl` [Example 29, 2,3-Dichloro-N-[3-(3-pyridinylmethoxy)-2-pyrazinyl]benzenesulphonamide], 138 to 139 °C. Take `COc1nc(C#N)cnc1NS(=O)(=O)c1cccc(Cl)c1Cl` [Example 190, 2,3-Dichloro-N-(5-cyano-3-methoxy-2-pyrazinyl)benzenesulphonamide]: the melting point was 239 to 240 °C. For `COc1ccc(COc2nccnc2NS(=O)(=O)c2cccc(Cl)c2Cl)cn1` [Example 128, 2,3-Dichloro-N-{3-[(6-methoxy-3-pyridinyl)methoxy]-2-pyrazinyl}benzenesulphonamide] the value was 187 to 188 °C; for `COc1nc(N2CCOCC2)cnc1NS(=O)(=O)c1cccc(Cl)c1Cl` [Example 55, 2,3-Dichloro-N-[3-methoxy-5-(4-morpholinyl)-2-pyrazinyl]benzenesulphonamide], 167 to 168 °C; for `Cc1nc(COc2nc(Cl)cnc2NS(=O)(=O)c2cccc(Cl)c2Cl)co1` [Example 144, 2,3-Dichloro-N-{5-chloro-3-[(2-methyl-4-oxazolyl)methoxy]-2-pyrazinyl}benzenesulphonamide], 172 to 173 °C. For `Cc1cnc(NS(=O)(=O)c2cccc(Cl)c2Cl)c(OCc2ccncc2)n1` [Example 25, 2,3-Dichloro-N-[5-methyl-3-(4-pyridinylmethoxy)-2-pyrazinyl]benzenesulphonamide] the value was 183 to 184 °C; for `Cc1cnc(NS(=O)(=O)c2cccc(Cl)c2Cl)c(OCc2ccco2)n1` [Example 20, 2,3-Dichloro-N-[3-(2-furanylmethoxy)-5-methyl-2-pyrazinyl]benzenesulphonamide], 127 to 129 °C; for `COc1nc(OCc2ccc(CN(C)C)o2)cnc1NS(=O)(=O)c1cccc(Cl)c1Cl` [Example 175, 2,3-Dichloro-N-[5-(5-dimethylaminomethyl-2-furanylmethoxy)-3-methoxy-2-pyrazinyl]benzenesulphonamide], 114 to 115 °C.

The record behind these values is patent US7662825B2, “N-pyrazinyl-phenylsulphonamides and their use in the treatment of chemokine mediated diseases” (AstraZeneca AB, priority 2002, dated 2010).
